# Like-named read-outs stand apart in the source and are kept apart here.
# Tests used:
# malaria = system: malaria; design: method as in PMID 24913163; details: suppressive and prophylactic assays, mice ref 8; cited from earlier work
# [1] = design: method as in PMID 24913163, PMID 25267666; details: beagle dogs, humanized mouse model and monkeys ref 8, 9; cited from earlier work
# [2] = system: primary human hepatocytes; assay: Substrate depletion / intrinsic clearance of PQ and its enantiomers in cryopreserved human hepatocytes; details: for λ elimination rate constant / t½ (initial half-life) / substrate depleted: 20 µM; for λ elimination rate constant / substrate depleted: human hepatocytes 1 million cells/mL; for λ elimination rate constant: log-linear regression 0–60 min; for substrate depleted: by 2 h; for CLh,b (% hepatic blood flow): human Qh 20.7 mL/min/kg
# Description: (§1) Pooled mixed-gender cryopreserved metabolism-qualified (CYP1A2, 2B6, 2C8, 2C9, 2C19, 2D6, 3A4, UGT2B7, UDP-glucuronosyltransferase) primary human hepatocytes (catalog number 454504) sourced from free donors (who were free of HIV, HBV, HCV and other liver-related diseases) were purchased from Corning Life Sciences (Woburn MA, USA) and stored in liquid nitrogen until use.
# (§2) The cryopreserved hepatocytes were thawed and the cells were suspended in recovery medium (Corning Life Sciences). According to the supplier’s instructions, the suspended cells were centrifuged (300g, 5 min), the recovery medium discarded and the cells were re-suspended in the plating medium. Viability of the suspended hepatocytes was computationally determined based on cell counts using a Bio-Rad automated cell counter (Hercules, CA, USA). The cell density was adjusted to approximately 1X10^6 viable cells/mL in the plating media.
# (§3) PQ, racemic and enantiomers, prepared as a 1:1 mixture of 12-C and 13-C-labelled compounds, were separately incubated at a final concentration of 20 µM in the cell-containing plating media using the 48-well plate at 37 °C under a humidified atmosphere of 95 % air and 5 % CO2 in an Eppendorf incubator (Hauppauge, NY, USA) attached with a shaker set at 75 rpm. A separate control incubation of PQ and the two enantiomers in the cell-free hepatocyte media was performed to detect any non-enzymatically generated product. Metabolic reactions were halted by the addition of two volumes of ice-cold methanol containing 0.5 µg/mL 6-d3-methoxyprimaquine as an internal standard at predetermined time intervals. This mixture was vortexed and kept at −20 °C for at least 4 h before further analysis. Parallel incubation of substrate-free hepatocytes was performed. At each time point, aliquots were taken for cell viability measurement.
# (§4) In preparation for HPLC–MS analysis, samples were centrifuged (10,000g, 10 min) and clear supernatants were dried using a Speedvac. The dried samples were re-suspended in 150 µL methanol, centrifuged and clear supernatants were transferred to HPLC sample vials for analysis.
# (§5) The analytical method for simultaneous analysis of primaquine and its metabolites using the Ultra-High Performance Liquid Chromatography-Mass Spectrometry (UHPLC-QToF-MS), as earlier developed and reported was employed in this study. […] Details of the chromatography set-up are published.
# (§6) Initial half-life (t^1/2) and elimination rate constants (λ = ln2/t^1/2) of PQ in hepatocyte incubates were calculated by log-linear regression of PQ concentrations profiled against time using data from the sampling points of the 20 µM PQ incubates. The intrinsic clearance in vitro (CLint in vitro) was calculated from λ and the cell density in the respective incubation (number of viable hepatocytes per mL at time zero) and scaled up to the intrinsic clearance in vivo (CLint in vivo) using the human liver mass (25.7 g/kg body mass) and the hepatocellularity (number of hepatocytes per gram of liver = 99 millions cells/g liver): CLint in vitro = λ/cell density. CLint in vivo = CLint in vitro × liver mass × heptocellularity. From CLint in vivo and the hepatic blood flow [Q (20.7 mL/min)/kg body mass], the hepatic metabolic blood clearance (CLh,b) was predicted using the well-stirred model: CLh,b = (CLint in vivo × Q)/(CLint in vivo + Q).
# (§7) Since this estimation was for comparisons between enantiomers only, no corrections were made for the free fractions in vitro or in vivo—i.e. they were assumed to be identical.
# recombinant human CYP2D6 = system: recombinant human CYP2D6; design: method as in PMID 25518709; details: cited from earlier work; for depletion of PQ enantiomers: 2 h incubation with recombinant human CYP2D6 ref 12
# [3] = design: method as in PMID 24913163, PMID 25267666; details: beagle dogs and mouse models ref 8, 9; cited from earlier work
# Pneumocystis carinii = system: Pneumocystis carinii; design: method as in PMID 24913163; details: mice ref 8; cited from earlier work
# [4] = design: method as in PMID 25267666, PMID 25637634, PMID 23378100; details: after racemic PQ in mice, monkeys and humans ref 9, 15, 16; cited from earlier work
# [5] = design: method as in PMID 25637634; details: cited from earlier work
# [6] = system: primary human hepatocytes; format: in vitro ADME; details: for enantiomer from which the metabolite is generated: 20 µM (+)-, (−)- and (±)-PQ; for amount detected: peak areas too minute to profile
# Procedure: A separate control incubation of PQ and the two enantiomers in the cell-free hepatocyte media was performed to detect any non-enzymatically generated product. Metabolic reactions were halted by the addition of two volumes of ice-cold methanol containing 0.5 µg/mL 6-d3-methoxyprimaquine as an internal standard at predetermined time intervals. This mixture was vortexed and kept at −20 °C for at least 4 h before further analysis. Parallel incubation of substrate-free hepatocytes was performed. At each time point, aliquots were taken for cell viability measurement.
# as §4, §5
# Metabolites in the accurate mass data were found using the Metabolynx® software. The data were searched using predicted metabolite mass, mass defects, isotope, and fragmentation patterns. Each sample was subjected to data acquisition in full scan and data-dependent positive MS/MS, targeted MS/MS (ESI positive ionization mode) and high-resolution MS (HRMS) modes using the Waters ACQUITY™ XEVO QTOF Mass Spectrometer (Waters Corporation, Manchester, UK) connected to the UHPLC system via an electrospray ionization (ESI) interface. Metabolites were distinguished from artifacts and unrelated products by the presence of twin peaks with a mass difference of six, arising from the six labels in the 1:1 mixture of 12-C and 13-C-labelled PQ. The Identification of each metabolite was assisted by its HRMS data, which were used to calculate their elemental compositions. The full scan mass data were screened and filtered using Waters MetaboLynx XS software. The qualitative metabolite identification was performed using this software package.
# [7] = design: method as in PMID 24913163, PMID 25267666; details: monkeys, higher than therapeutic doses ref 8, 9; cited from earlier work
# [8] = system: primary human hepatocytes; assay: Hepatocyte viability time course by cell counts in presence and absence of PQ; format: cell-based
# Procedure: Parallel incubation of substrate-free hepatocytes was performed.
# [9] = Substrate depletion / intrinsic clearance of PQ and its enantiomers in cryopreserved human hepatocytes; details: both, human; for half-life at 20 µM: hepatocytes, t½ (initial half-life), human hepatocytes
# Description: as §1, §2, §3, §4, §5, §6, §7
# [10] = design: method as in PMID 25645856; details: mice, therapeutic doses ref 22; cited from earlier work
# [11] = Control incubation in cell-free hepatocyte media (non-enzymatic products); format: in vitro ADME
# Procedure: as §3
# [12] = human hepatocytes, computed from λ
# [13] = human hepatocytes, computed from λ (ln2/λ)
smiles,measurement,setting,value
"COc1cc(N[C@@H](C)CCCN)c2ncccc2c1 [(+)-PQ, (+)-(S)-primaquine]",anti-malarial activity compared with (−)-PQ,malaria,more active than (−)-PQ
same,methaemoglobinemia,[1],higher methaemoglobinemia than (−)-PQ
same,λ elimination rate constant,[2],0.19 h⁻¹
same,t½ (initial half-life),[2]; [12],3.62 h
same,t½ (initial half-life),[2]; [13],3.62 h
same,substrate depleted,[2],16%
same,rate of hepatic clearance of (+)-PQ relative to that of (−)-PQ,"[2]; extrapolated in vivo human hepatic blood clearance, well-stirred liver model",45%
same,"CLh,b (% hepatic blood flow)",[2],24 % hepatic blood flow
same,initial half-life compared with (−)-PQ,[2]; human hepatocytes,more than three times longer
same,depletion of PQ enantiomers,recombinant human CYP2D6,50%
same,rate of metabolism compared to (−)-PQ,recombinant human CYP2D6; in vitro with recombinant human CYP2D6 ref 12,significantly higher
same,acute toxicity,[3],higher acute toxicity than (−)-PQ
same,Pneumocystis carinii pneumonia efficacy compared with (−)-PQ,Pneumocystis carinii,more active than (−)-PQ
"COc1cc(NC(C)CCC(=O)O)c2ncccc2c1 (stereo not drawn) [CPQ, carboxyprimaquine]",enantiomeric form in plasma,[4],predominantly the (−)-form
same,CPQ peak plasma concentration from (−)-PQ relative to from (+)-PQ,"[5]; human, after racemic primaquine ref 15",15 times
same,enantiomer from which the metabolite is generated,[6],preferentially generated from the (−)-PQ
same,portion of metabolite generated within 30 min,[6]; 2 h incubation,75%
"COc1cc(NC(C)CCCN)c2ncccc2c1 (single isomer, unassigned; (-)) [(−)-PQ, (−)-primaquine]",λ elimination rate constant,[2],0.64 h⁻¹
same,t½ (initial half-life),[2]; [12],1.08 h
same,t½ (initial half-life),[2]; [13],1.09 h
same,substrate depleted,[2],42%
same,"CLh,b (% hepatic blood flow)",[2],51 % hepatic blood flow
same,in vitro clearance compared with (+)-PQ,[2]; human hepatocytes,three times faster
same,liver damage,[7],reversible liver damage
same,depletion of PQ enantiomers,recombinant human CYP2D6,30%
COc1cc(N2C(=O)CCC2C)c2ncccc2c1 (stereo not drawn),enantiomer from which the metabolite is generated,[6],preferentially generated from the (−)-PQ
COc1cc([N+]2=CCCC2C)c2ncccc2c1 (stereo not drawn),enantiomer from which the metabolite is generated,[6],preferentially generated from the (−)-PQ
"COc1cc(NC(C)CCC(=O)OC2OC(C(=O)O)C(O)C(O)C2O)c2ncccc2c1 [CPQ glucuronide, Carboxyprimaquine-β-D-glucuronide]",enantiomer from which the metabolite is generated,[6],preferentially generated from the (−)-PQ
"COc1cc(NC(C)CCCNC(=O)OC2OC(C(=O)O)C(O)C(O)C2O)c2ncccc2c1 [N-carbamoyl glucuronide of PQ, (S)-primaquine-N-carbamoyl-β-D-glucuronide]",enantiomer from which the metabolite is generated,[6],exclusively formed from (+)-PQ
same,enantiomer from which the metabolite is generated,[6]; listed as carbamoyl glucuronide of PQ,exclusively generated from (+)-PQ
"COc1cc(NC(C)CCCN)c2ncccc2c1 (racemic) [(±)-PQ, primaquine]",direct hepatocellular toxicity (viable cell counts vs drug-free incubation),"[8]; 20 µM, up to 2 h",absence of PQ-induced direct hepatocellular toxicity
same,hepatocyte viability,"[8]; at the 2 h termination time, drug-free and PQ-containing incubates similar",88 % of the starting value
same,Km,[9],37 µM
same,k el at 20 µM,[9],9.44e-05 s⁻¹
same,half-life at 20 µM,[9]; computed from λ,2.03 h
same,half-life at 20 µM,[9]; computed from λ (ln2/λ),2.03 h
same,substrate depleted,[2],30%
same,"CLh,b (% hepatic blood flow)",[2],36 % hepatic blood flow
same,expected peak plasma concentrations,[5]; humans ref 15,< 2 µM
same,liver concentration relative to plasma,[10],about 20 times
COc1cc(NC(C)CCCNC2OC(CO)C(O)C(O)C2O)c2ncccc2c1 (stereo not drawn) [glycosylated conjugate of PQ],enantiomer from which the metabolite is generated,[6],preferentially generated by (+)-PQ
same,enantiomer from which the metabolite is generated,[6]; listed as PQ conjugate formed by apparent N-glucosylation,preferentially formed with (+)-PQ
same,enantiomer from which the metabolite is generated,[6]; listed as glycosylated PQ,preferentially generated from (+)-PQ
same,time of peak formation,[6]; biphasic increase,≤ 30 min
same,formation in cell-free media,[11],formed non-enzymatically
COc1cc(NC(C)CCCN)c2nccc(O)c2c1 (stereo not drawn) [4-hydroxyprimaquine],enantiomer from which the metabolite is generated,[6],exclusively generated from the (+)-PQ
same,amount detected,[6],trace amounts
"COc1cc(NC(C)CCCO)c2ncccc2c1 (stereo not drawn) [PQ terminal alcohol, primaquine alcohol]",enantiomer from which the metabolite is generated,[6],preferentially generated from the (−)-PQ
COc1cc(NC(C)CCCN)c2nc(O)ccc2c1 (stereo not drawn) [2-hydroxyprimaquine],enantiomer from which the metabolite is generated,[6],exclusively generated from the (+)-PQ
same,amount detected,[6],trace amounts
"COc1cc(NC(C)CCCOC2OC(C(=O)O)C(O)C(O)C2O)c2ncccc2c1 [glucuronide of PQ alcohol, Primaquine alcohol-O-β-D-glucuronide]",enantiomer from which the metabolite is generated,[6],preferentially generated from the (−)-PQ
